# Laboratory results as given in PubChem BioAssay (NCI).
# Values joined by “and” are separate entries in the source; they are usually repeats but may differ in a detail not shown here. Equal entries are not always repeated.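 Five concentrations, 48 hours, 96-well plates. GI50 is the concentration that inhibits growth by half. TGI denotes the concentration required for complete inhibition of growth.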
# Tests used:
# Assay in all cases: NCI-60 cell line screen, 48 h
# MOLT-4 leukemia = test system: MOLT-4 leukemia
# IGROV1 ovarian = test system: IGROV1 ovarian
# U251 CNS = test system: U251 CNS
# T-47D breast = test system: T-47D breast
# UO-31 renal = test system: UO-31 renal
# SR leukemia = test system: SR leukemia
# SW-620 colon = test system: SW-620 colon
# SF-268 CNS = test system: SF-268 CNS
# NCI-H226 lung = test system: NCI-H226 lung
# BT-549 breast = test system: BT-549 breast
Compound,TGI (MOLT-4 leukemia) [µM],TGI (IGROV1 ovarian),TGI (U251 CNS),TGI (T-47D breast) [µM],TGI (UO-31 renal) [µM],TGI (SR leukemia) [µM],TGI (SW-620 colon) [µM],TGI (SF-268 CNS),TGI (NCI-H226 lung),TGI (BT-549 breast) [µM],GI50 (MOLT-4 leukemia) [nM],GI50 (IGROV1 ovarian) [µM],GI50 (U251 CNS) [µM],GI50 (T-47D breast) [µM],GI50 (UO-31 renal) [µM],GI50 (SR leukemia) [nM],GI50 (SW-620 colon) [µM],GI50 (SF-268 CNS) [µM],GI50 (NCI-H226 lung) [nM],GI50 (BT-549 breast) [µM]
O=C(O)COc1c(Cl)cc(Cl)c2cccnc12,> 100,> 100 µM,> 100 µM,> 100,> 100,> 100,> 100,> 100 µM,> 100 µM,> 100,,,,,,,,,,
O=C(Nc1cccc(Nc2ncc(Br)c(NCCc3cnc[nH]3)n2)c1)N1CCCC1,24.8,28.8 µM,45.8 µM,25.5,45.8,28,11.4,13.9 µM,4.74 µM,13,2410,3.23,5.22,4.43,13.4,527,1.27,1.41,771,2.04
CC1(C)OC2C(=O)C=C(COCc3ccccc3)C2O1 (configuration not stated),> 100,53.5 µM,90 µM,56.3,50.1,> 100,52.2,> 100 µM,61.5 µM,39.8,,,,,,,,,,
N#Cc1c(N)[nH]c2ccc(Sc3ccccc3)cc12,11.2,8.36 µM,17.5 µM,23,13.9,6.25,16.9,15.4 µM,1.29 µM,19.5,,,,,,,,,,
CC1=CC(=O)C(O)C2(C)C1CC(O)C13COC4(C)C(OC(=O)C41)C(O)C23 (configuration not stated),7.34,45.8 µM,31.6 µM,66.5,42.7,6.46,89.9,52.5 µM,21.2 µM,43.4,39.8,12.3,6.1,17.6,10.7,688,5.41,12.6,3480,11
O=C(Oc1cccnc1)c1ccsc1Nc1ccnc(C(F)(F)F)c1,35,> 100 µM,18.7 µM,68,> 100,47.1,> 100,> 100 µM,> 100 µM,> 100,4390,5.24,3.91,13.8,20.8,3740,4.09,4.54,22300,5.36
CC(C)=CCC/C(C)=C/CC/C(C)=C/CC/C=C(\C)CC/C=C(\C)CCC(=O)Nc1ccn(C2OC(CO)C(O)C2(F)F)c(=O)n1 (configuration not stated),1.5,11.1 µM,16.1 µM,11.8,14.7,0.374,21.4,3.51 µM,20.4 µM,0.472,74.3,0.142,0.0884,0.089,0.0501,39.1,0.48,0.0853,2500,
CN1CCC(n2cnc(-c3ccc(F)cc3)c2-c2ccnc(N)n2)CC1,> 25,> 20.7 µM,> 25 µM,> 25,16.1,> 25,> 25,> 25 µM,> 25 µM,> 25,12600,6.48,8.53,16,2.55,10400,5.93,10.4,10900,15.3
C/C1=C\[C@@H](O)C(=O)/C=C/C=C\c2csc(n2)[C@@H](C)NC(=O)C[C@@]2(CC1)S(=O)SC(=O)[C@]2(C)O (some centres not stated),,0.552 µM and 0.23 µM,0.209 µM and 0.267 µM,0.0217,0.0889,,0.0143,0.285 µM and 0.06 µM,0.558 µM and 0.327 µM,0.0062,> 100000,0.0237,0.0122,,,> 100000,,,25.4,
